Reference: ChEMBL document CHEMBL4118098, “Discovery of DS28120313 as a potent orally active hepcidin production inhibitor: Design and optimization of novel 4,6-disubstituted indazole derivatives” (Bioorg Med Chem Lett, 2017)

Legend:
[1] = system: Fibroblast growth factor receptor 1 (Homo sapiens), P11362 [V561M]; assay: Inhibition of FGFR1 V561M mutant (unknown origin) at 0.164 uM relative to control
[2] = biological target: CDK4/Cyclin D3 (Homo sapiens) (UniProt P11802+P30281); assay: Inhibition of CDK4/CyclinD3 (unknown origin) at 0.164 uM relative to control; format: protein-complex assay
[3] = biological target: Serine/threonine-protein kinase BRSK1 (Homo sapiens) (UniProt Q8TDC3); assay: Inhibition of BRSK1 (unknown origin) at 0.164 uM relative to control
[4] = biological target: Hepatocyte growth factor receptor (Homo sapiens) (UniProt P08581); assay: Inhibition of MET (unknown origin) at 0.164 uM relative to control
[5] = biological target: Serine/threonine-protein kinase Nek6 (Homo sapiens) (UniProt Q9HC98); assay: Inhibition of NEK6 (unknown origin) at 0.164 uM relative to control
[6] = Lipophilicity, log D of the compound; format: physicochemical; conditions: octanol/water
[7] = biological target: Serine/threonine-protein kinase Sgk1 (Homo sapiens) (UniProt O00141); assay: Inhibition of SGK1 (unknown origin) at 0.164 uM relative to control
[8] = biological target: Activated CDC42 kinase 1 (Homo sapiens) (UniProt Q07912); assay: Inhibition of ACK (unknown origin) at 0.164 uM relative to control
[9] = biological target: Tyrosine-protein kinase Lck (Homo sapiens) (UniProt P06239); assay: Inhibition of LCK (unknown origin) at 0.164 uM relative to control
Tyrosine-protein kinase Lck (Homo sapiens), sequence (P06239 2-509 limits assumed): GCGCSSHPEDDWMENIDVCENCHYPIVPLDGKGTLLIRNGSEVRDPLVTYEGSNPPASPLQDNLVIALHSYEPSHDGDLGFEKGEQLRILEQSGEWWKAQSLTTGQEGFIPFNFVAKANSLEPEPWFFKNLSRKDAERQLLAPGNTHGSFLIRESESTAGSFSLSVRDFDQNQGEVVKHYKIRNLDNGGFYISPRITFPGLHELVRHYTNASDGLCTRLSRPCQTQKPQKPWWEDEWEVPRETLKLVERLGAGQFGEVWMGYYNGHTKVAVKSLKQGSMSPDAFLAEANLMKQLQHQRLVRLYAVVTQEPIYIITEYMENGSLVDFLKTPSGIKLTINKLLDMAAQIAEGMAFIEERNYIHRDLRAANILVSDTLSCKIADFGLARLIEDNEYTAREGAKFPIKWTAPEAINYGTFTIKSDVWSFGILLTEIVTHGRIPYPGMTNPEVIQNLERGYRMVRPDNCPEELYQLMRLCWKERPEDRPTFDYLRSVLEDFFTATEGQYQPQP

[10] = biological target: Serine/threonine-protein kinase MARK2 (Homo sapiens) (UniProt Q7KZI7); assay: Inhibition of MARK2 (unknown origin) at 0.164 uM relative to control
Serine/threonine-protein kinase MARK2 (Homo sapiens), sequence (Q7KZI7 whole entry): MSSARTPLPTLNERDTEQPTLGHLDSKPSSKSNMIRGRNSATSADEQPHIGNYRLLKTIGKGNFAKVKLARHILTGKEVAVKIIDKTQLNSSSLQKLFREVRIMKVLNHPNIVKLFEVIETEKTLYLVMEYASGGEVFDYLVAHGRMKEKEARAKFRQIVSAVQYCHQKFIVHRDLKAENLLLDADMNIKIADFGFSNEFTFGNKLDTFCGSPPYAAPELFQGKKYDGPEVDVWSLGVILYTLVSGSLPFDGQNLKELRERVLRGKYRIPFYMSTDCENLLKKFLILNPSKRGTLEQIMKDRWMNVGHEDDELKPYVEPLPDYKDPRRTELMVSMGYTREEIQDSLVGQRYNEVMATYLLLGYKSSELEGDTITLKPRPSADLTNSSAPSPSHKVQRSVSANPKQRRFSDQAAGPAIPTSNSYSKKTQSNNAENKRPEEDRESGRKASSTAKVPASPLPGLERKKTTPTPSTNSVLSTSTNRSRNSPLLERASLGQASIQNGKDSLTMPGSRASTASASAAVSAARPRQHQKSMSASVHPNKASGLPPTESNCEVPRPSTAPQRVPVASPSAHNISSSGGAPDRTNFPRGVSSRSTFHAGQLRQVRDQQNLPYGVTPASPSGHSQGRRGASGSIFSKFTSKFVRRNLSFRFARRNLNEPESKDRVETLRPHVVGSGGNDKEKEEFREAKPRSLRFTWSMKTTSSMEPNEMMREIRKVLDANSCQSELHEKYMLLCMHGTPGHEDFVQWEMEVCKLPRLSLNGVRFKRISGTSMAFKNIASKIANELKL

[11] = biological target: Rho-associated protein kinase 2 (Homo sapiens) (UniProt O75116); assay: Inhibition of ROCK2 (unknown origin) at 0.164 uM relative to control
[12] = biological target: Casein kinase I isoform gamma-2 (Homo sapiens) (UniProt P78368); assay: Inhibition of CK1-gamma2 (unknown origin) at 0.164 uM relative to control
Casein kinase I isoform gamma-2 (Homo sapiens), sequence (P78368 whole entry, looked up, canonical isoform): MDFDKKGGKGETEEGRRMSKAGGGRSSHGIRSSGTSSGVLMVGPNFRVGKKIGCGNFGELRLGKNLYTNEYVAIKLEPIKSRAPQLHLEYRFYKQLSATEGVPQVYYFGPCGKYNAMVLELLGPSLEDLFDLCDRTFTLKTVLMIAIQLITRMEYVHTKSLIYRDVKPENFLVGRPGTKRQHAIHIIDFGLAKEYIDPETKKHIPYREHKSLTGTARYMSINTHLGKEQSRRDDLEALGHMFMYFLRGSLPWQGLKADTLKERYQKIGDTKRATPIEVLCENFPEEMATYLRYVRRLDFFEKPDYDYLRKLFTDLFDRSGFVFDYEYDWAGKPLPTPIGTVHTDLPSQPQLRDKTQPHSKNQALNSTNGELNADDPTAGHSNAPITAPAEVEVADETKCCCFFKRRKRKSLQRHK

[13] = biological target: Protein kinase C epsilon type (Homo sapiens) (UniProt Q02156); assay: Inhibition of PKC-epsilon (unknown origin) at 0.164 uM relative to control
Protein kinase C epsilon type (Homo sapiens), sequence (Q02156 whole entry): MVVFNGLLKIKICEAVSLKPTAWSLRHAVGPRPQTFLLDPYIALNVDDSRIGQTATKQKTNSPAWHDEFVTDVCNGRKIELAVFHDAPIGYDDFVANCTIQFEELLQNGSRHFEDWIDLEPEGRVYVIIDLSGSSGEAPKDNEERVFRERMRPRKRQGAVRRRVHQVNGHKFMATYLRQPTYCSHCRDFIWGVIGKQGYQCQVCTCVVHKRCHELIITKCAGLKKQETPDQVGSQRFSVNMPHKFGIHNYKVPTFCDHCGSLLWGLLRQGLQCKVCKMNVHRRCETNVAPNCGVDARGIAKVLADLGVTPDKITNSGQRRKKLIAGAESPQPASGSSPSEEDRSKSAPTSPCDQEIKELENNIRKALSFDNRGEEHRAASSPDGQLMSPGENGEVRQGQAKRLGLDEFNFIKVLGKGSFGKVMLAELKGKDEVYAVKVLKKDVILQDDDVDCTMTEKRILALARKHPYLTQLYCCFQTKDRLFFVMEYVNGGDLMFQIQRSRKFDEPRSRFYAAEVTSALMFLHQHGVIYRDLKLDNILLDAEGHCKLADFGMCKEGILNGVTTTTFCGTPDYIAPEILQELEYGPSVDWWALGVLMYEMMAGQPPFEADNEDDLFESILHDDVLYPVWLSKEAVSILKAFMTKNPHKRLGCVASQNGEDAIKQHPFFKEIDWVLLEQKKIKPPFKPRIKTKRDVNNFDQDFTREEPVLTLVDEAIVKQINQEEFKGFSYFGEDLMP

[14] = biological target: Ribosomal protein S6 kinase alpha-1 (Homo sapiens) (UniProt Q15418); assay: Inhibition of RSK1 (unknown origin) at 0.164 uM relative to control
[15] = biological target: Serine/threonine-protein kinase pim-3 (Homo sapiens) (UniProt Q86V86); assay: Inhibition of PIM3 (unknown origin) at 0.164 uM relative to control
[16] = system: Proto-oncogene tyrosine-protein kinase receptor Ret (Homo sapiens), P07949 [M918T]; assay: Inhibition of RET M918T mutant (unknown origin) at 0.164 uM relative to control
[17] = biological target: T1, Testis-specific serine/threonine-protein kinase 2 (Homo sapiens) (UniProt Q96PF2); assay: Inhibition of TSSK2 (unknown origin) at 0.45 uM relative to control
T1 sequence (whole entry): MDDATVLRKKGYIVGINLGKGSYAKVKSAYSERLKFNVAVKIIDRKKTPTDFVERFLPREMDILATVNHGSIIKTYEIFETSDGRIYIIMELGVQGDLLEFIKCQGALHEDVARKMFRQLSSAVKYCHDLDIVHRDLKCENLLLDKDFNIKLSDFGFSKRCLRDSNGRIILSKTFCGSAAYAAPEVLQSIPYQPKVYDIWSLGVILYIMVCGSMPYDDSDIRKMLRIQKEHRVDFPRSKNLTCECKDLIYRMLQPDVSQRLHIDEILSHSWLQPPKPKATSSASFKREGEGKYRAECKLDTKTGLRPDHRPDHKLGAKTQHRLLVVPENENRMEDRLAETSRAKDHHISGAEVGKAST

[18] = system: Mast/stem cell growth factor receptor Kit (Homo sapiens), P10721 [T670I]; assay: Inhibition of KIT T670I mutant (unknown origin) at 0.45 uM relative to control
[19] = biological target: Ribosomal protein S6 kinase alpha-4 (Homo sapiens) (UniProt O75676); assay: Inhibition of MSK2 (unknown origin) at 0.19 uM relative to control
Ribosomal protein S6 kinase alpha-4 (Homo sapiens), sequence (O75676 whole entry, looked up): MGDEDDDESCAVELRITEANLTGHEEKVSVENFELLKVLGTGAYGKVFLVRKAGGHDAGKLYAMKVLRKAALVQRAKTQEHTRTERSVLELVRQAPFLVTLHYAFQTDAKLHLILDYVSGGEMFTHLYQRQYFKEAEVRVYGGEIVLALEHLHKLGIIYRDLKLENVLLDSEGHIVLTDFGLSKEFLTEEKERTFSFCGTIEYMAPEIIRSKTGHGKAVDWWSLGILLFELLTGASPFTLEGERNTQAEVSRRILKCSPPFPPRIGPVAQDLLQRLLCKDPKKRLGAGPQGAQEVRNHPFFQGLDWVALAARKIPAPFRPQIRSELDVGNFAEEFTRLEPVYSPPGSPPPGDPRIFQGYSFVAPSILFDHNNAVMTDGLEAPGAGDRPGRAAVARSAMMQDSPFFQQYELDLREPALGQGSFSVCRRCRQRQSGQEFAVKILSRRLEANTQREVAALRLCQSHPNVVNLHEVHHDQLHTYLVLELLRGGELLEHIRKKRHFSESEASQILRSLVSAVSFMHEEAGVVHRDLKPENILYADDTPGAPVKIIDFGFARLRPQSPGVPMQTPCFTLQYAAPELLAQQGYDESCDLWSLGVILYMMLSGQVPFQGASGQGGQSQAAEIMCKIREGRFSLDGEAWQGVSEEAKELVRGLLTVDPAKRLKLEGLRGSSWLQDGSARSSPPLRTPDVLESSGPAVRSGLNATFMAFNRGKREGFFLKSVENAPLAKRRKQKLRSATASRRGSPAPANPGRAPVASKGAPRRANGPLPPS

[20] = biological target: Serine/threonine-protein kinase D2 (Homo sapiens) (UniProt Q9BZL6); assay: Inhibition of PKD2 (unknown origin) at 0.19 uM relative to control
[21] = biological target: Ephrin type-B receptor 3 (Homo sapiens) (UniProt P54753); assay: Inhibition of EPHB3 (unknown origin) at 0.19 uM relative to control
[22] = biological target: Tyrosine-protein kinase Lck (Homo sapiens) (UniProt P06239); assay: Inhibition of LCK (unknown origin) at 0.19 uM relative to control
[23] = biological target: Ribosomal protein S6 kinase (Homo sapiens) (UniProt P51812+Q9UBS0+O75676+Q15349+O75582+P23443+Q9UK32+Q15418); assay: Inhibition of p70S6K (unknown origin) at 0.19 uM relative to control; format: protein assay
[24] = biological target: Serine/threonine-protein kinase pim-1 (Homo sapiens) (UniProt P11309); assay: Inhibition of PIM1 (unknown origin) at 0.19 uM relative to control
Serine/threonine-protein kinase pim-1 (Homo sapiens), sequence (P11309 whole entry, looked up): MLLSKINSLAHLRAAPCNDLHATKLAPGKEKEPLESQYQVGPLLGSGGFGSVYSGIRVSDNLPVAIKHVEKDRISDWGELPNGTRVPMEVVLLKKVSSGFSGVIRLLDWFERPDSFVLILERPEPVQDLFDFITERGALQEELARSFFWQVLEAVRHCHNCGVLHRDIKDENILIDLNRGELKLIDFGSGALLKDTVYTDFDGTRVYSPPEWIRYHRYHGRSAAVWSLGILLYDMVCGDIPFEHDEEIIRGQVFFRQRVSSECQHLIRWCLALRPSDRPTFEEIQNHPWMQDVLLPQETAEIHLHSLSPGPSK

[25] = biological target: Cyclin-dependent kinase 5/CDK5 activator 1 (Homo sapiens) (UniProt Q00535+Q15078); assay: Inhibition of CDK5/p25 (unknown origin) at 0.19 uM relative to control; format: protein-complex assay
[26] = biological target: Serine/threonine-protein kinase BRSK2 (Homo sapiens) (UniProt Q8IWQ3); assay: Inhibition of BRSK2 (unknown origin) at 0.19 uM relative to control
[27] = biological target: Serine/threonine-protein kinase Nek2 (Homo sapiens) (UniProt P51955); assay: Inhibition of NEK2 (unknown origin) at 0.19 uM relative to control
[28] = biological target: Tyrosine-protein kinase Fes/Fps (Homo sapiens) (UniProt P07332); assay: Inhibition of FES (unknown origin) at 0.19 uM relative to control
Tyrosine-protein kinase Fes/Fps (Homo sapiens), sequence (P07332 whole entry): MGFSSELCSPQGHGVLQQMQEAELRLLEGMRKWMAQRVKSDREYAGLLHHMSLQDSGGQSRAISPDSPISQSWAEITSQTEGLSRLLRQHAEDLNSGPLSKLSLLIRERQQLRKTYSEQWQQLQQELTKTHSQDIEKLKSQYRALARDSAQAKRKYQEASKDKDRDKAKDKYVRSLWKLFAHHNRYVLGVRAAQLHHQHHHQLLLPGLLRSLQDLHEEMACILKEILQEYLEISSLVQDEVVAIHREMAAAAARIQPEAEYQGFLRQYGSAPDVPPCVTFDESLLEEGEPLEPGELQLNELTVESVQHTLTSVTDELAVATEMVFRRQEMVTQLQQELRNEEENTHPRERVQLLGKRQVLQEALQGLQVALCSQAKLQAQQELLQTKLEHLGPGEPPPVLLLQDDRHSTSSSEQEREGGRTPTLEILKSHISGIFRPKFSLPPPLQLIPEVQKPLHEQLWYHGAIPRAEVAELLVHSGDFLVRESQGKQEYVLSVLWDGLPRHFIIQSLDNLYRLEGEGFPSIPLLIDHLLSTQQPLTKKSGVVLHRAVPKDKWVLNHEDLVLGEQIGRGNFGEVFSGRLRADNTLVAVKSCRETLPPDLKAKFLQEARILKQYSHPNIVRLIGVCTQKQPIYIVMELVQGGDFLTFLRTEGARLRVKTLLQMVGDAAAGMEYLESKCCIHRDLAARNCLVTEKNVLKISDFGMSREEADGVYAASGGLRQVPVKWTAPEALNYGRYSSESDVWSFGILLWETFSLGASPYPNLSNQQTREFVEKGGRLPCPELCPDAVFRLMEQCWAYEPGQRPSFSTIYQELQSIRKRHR

[29] = biological target: AMP-activated protein kinase, AMPK (Homo sapiens) (UniProt P54646+O43741+P54619+Q9UGJ0+Q9Y478+Q13131+Q9UGI9); assay: Inhibition of AMPK (unknown origin) at 0.19 uM relative to control; format: protein-complex assay
[30] = biological target: Tyrosine-protein kinase Fgr (Homo sapiens) (UniProt P09769); assay: Inhibition of FGR (unknown origin) at 0.19 uM relative to control
Tyrosine-protein kinase Fgr (Homo sapiens), sequence (P09769 2-529 limits assumed): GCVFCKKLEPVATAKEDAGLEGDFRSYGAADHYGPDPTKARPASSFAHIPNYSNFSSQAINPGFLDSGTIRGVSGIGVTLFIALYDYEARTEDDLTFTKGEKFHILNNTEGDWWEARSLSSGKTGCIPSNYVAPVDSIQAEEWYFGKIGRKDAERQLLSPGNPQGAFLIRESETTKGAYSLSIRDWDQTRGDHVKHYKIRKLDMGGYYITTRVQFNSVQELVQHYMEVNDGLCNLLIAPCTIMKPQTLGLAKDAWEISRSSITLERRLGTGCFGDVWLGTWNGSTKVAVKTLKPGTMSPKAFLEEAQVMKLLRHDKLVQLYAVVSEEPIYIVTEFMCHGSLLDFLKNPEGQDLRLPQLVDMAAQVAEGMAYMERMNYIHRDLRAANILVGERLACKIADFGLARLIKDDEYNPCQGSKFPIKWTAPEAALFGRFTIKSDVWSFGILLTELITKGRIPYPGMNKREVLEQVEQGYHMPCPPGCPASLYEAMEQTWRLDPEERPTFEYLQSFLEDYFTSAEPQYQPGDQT

[31] = biological target: Vascular endothelial growth factor receptor 3 (Homo sapiens) (UniProt P35916); assay: Inhibition of FLT4 (unknown origin) at 0.19 uM relative to control
[32] = biological target: Leukocyte tyrosine kinase receptor (Homo sapiens) (UniProt P29376); assay: Inhibition of LTK (unknown origin) at 0.19 uM relative to control
[33] = biological target: Aurora kinase A (Homo sapiens) (UniProt O14965); assay: Inhibition of AurA (unknown origin) at 0.19 uM relative to control
[34] = biological target: Calcium/calmodulin-dependent protein kinase type 1D (Homo sapiens) (UniProt Q8IU85); assay: Inhibition of CamK1d (unknown origin) at 0.19 uM relative to control

COC(=O)Nc1cc(-c2c(C3CC3)n[nH]c2C)cc2[nH]ncc12
inhibition [1]: 4.7% | inhibition [2]: -0.7% | inhibition [3]: -1% | inhibition [4]: 0% | inhibition [5]: 4.3% | logD [6]: 3.1 | inhibition [7]: 0.3% | inhibition [8]: 0.7% | inhibition [9]: 17.3% | inhibition [10]: -4.7% | inhibition [11]: -3% | inhibition [12]: 2.3% | inhibition [13]: -4% | inhibition [14]: 17% | inhibition [15]: -2.3% | inhibition [16]: 6.7%

Cc1n[nH]c(C)c1-c1ccc2c(NC(=O)c3ccc(N4CCN(C)CC4)cc3)n[nH]c2c1
inhibition [17]: -3% | inhibition [18]: -10%

Cc1[nH]nc(C2CC2)c1-c1ccc2c(-c3ccc(N4CCN(C)CC4)nc3)n[nH]c2c1
inhibition [19]: -3.3% | inhibition [20]: 9% | inhibition [21]: 1% | inhibition [22]: 26.7% | inhibition [23]: 5.7% | inhibition [24]: -1.3% | inhibition [25]: -4% | inhibition [26]: 6.3% | inhibition [27]: 12% | inhibition [28]: -5% | inhibition [29]: 38.7% | inhibition [30]: -3% | inhibition [31]: 28.3% | inhibition [32]: 0.3% | inhibition [33]: 3.3% | inhibition [34]: -1.7%
